According to patent publication US20200225244A1, “COMPOSITIONS AND METHODS FOR ASSESSING PAINFUL DEMYELINATING AND NONDEMYELINATING DISEASES” (Sanford Burnham Prebys Medical Discovery Institute, priority 2017, published 2020):

Assays:
[1] = system: gelatinolytic urinary MMPs; conditions: 20 mM EDTA; urine of CCI rats, day 0, 1 and 28
Experimental: The urine samples collected at day 0 (prior to injury) and days 1 and 28 post-CCI (n=4-6/group) were equilibrated in MMP buffer, pH 7.5 and then the protein concentrations were determined using the Bradford assay and made even by sample dilution in MMP buffer, pH 7.5. Dialyzed urine samples were analyzed by gelatin zymography. […] The urine samples collected at day 0 (CTR) and 28 post-CCI (CCI) (n=4-5/group) were equilibrated in MMP buffer, pH 7.5, and then the protein concentrations were determined using the Bradford assay. Dialyzed urine samples were co-incubated with the fluorescent Mca-PLGL-Dpa-AR-NH2 MMP substrate in the presence and the absence of GM6001, a broad-spectrum hydroxamate MMP inhibitor.
The dialyzed rat urine samples equilibrated in MMP buffer, pH 7.5, the crude nerve extracts and the MMP-9 samples isolated from sciatic nerve were analyzed by gelatin zymography in a 10% acrylamide-0.1% gelatin gel. […] Where indicated, gels were incubated in 20 mM EDTA to inactivate MMP activity.

[2] = target: T1, α2δ1 subunit of the voltage-gated Ca^2+ channel (Homo sapiens, UniProt P54289); conditions: animal studies; Ohashi et al. 2008; cited from earlier work
T1 construct: PD-217,014 produces visceral analgesic effects in animal studies

female rats = conditions: single intra-neural injection into intact sciatic nerve, Liu et al. 2012; cited from earlier work

T1 sequence (P54289 25-1103): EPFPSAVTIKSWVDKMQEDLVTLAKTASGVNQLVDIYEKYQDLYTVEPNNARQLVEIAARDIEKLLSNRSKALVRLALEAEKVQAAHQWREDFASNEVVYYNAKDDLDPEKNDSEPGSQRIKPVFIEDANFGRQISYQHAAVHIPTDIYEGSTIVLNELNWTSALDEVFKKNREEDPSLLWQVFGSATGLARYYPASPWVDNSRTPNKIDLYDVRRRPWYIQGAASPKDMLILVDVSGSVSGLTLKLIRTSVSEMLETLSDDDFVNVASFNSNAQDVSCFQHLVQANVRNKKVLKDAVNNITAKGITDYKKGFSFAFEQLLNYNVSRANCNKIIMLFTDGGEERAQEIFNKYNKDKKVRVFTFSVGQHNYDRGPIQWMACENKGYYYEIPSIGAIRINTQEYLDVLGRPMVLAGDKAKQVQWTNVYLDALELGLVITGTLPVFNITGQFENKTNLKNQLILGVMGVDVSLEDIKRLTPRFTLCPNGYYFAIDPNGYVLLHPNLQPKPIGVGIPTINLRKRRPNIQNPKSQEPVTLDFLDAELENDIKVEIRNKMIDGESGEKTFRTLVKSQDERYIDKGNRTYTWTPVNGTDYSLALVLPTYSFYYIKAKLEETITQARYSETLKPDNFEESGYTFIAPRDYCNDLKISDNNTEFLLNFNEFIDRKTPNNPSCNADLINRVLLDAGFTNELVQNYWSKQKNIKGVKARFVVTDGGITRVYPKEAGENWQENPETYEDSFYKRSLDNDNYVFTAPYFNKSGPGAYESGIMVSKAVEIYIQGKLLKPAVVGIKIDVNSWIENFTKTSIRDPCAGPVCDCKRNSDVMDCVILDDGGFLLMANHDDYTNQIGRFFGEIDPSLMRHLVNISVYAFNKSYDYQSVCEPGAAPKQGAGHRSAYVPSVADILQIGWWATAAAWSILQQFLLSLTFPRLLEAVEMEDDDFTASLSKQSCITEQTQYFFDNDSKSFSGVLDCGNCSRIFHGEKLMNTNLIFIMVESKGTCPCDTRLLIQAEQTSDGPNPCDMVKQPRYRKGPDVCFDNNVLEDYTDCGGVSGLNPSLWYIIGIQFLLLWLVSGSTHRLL
T1 sequence (P54289 957-1103): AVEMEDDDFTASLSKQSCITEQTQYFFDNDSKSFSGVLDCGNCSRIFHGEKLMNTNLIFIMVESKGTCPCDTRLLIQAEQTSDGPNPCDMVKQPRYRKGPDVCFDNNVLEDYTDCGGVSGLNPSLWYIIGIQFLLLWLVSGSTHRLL

## O=C(O)CN(CCN(CC(=O)O)CC(=O)O)CC(=O)O [EDTA]
[1]
  effect on MMP-related gelatinolytic bands: repressed all of the MMP-related gelatinolytic bands

## NC[C@@]1(CC(=O)O)C[C@H]2CC[C@H]2C1 [PD-217,014]
[2]
  visceral analgesic effects, potency and efficacy compared with gabapentin: higher potency and efficacy than gabapentin

## ENPVVHFFKNIVTPRTPPPSQ (synthetic wild-type (MBP84-104-WT)) [synthetic algesic myelin basic protein-derived peptide, region 84-104 of human MBP]
Female rats
  mechanical allodynia after injection: causes a robust and long-lasting mechanical allodynia
